Assay results: patent publication US20210255193A1, “LYSINE REACTIVE PROBES AND USES THEREOF” (The Scripps Research Institute, priority 2017, published 2021)

Tests used:
LMNA Prelamin-A/C = target: T1, LMNA Prelamin-A/C (Homo sapiens, UniProt P02545); test: competitive isoTOP-ABPP; type: binding
T1 construct: isoTOP-ABPP experiments performed in cell lysates (in vitro); endogenous in cells; host or cells: MDA-MB-231 soluble lysate
T1 sequence (P02545 1-664): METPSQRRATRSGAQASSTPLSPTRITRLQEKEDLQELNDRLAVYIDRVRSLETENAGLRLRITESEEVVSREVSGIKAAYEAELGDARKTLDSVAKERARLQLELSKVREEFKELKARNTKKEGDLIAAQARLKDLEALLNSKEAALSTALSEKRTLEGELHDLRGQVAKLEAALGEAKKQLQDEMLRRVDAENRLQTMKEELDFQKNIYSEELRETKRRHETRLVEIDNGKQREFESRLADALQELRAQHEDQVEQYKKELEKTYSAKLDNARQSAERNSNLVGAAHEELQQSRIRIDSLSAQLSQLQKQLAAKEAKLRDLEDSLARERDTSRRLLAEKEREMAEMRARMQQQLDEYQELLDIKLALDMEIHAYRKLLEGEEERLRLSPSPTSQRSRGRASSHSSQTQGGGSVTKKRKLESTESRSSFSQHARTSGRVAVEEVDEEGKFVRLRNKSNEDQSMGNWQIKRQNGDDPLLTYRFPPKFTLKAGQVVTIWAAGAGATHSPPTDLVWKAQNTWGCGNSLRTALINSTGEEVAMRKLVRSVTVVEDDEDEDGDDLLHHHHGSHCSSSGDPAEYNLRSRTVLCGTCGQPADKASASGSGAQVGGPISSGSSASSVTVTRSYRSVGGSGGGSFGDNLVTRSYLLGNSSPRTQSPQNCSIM
In short: (§1)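 Readout: isotopic light/heavy MS1 peak-area ratio (R, DMSO heavy over compound light), median across peptides sharing a modified lysine. Lysate received fragment (activated esters 50 μM, guanidinylating agents 100 μM final) or DMSO, then 0.1 mM STP-alkyne probe for 1 h at ambient temperature.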

STRN3 Striatin-3 = target: T2, STRN3 Striatin-3 (Homo sapiens, UniProt Q13033); test: competitive isoTOP-ABPP; type: binding
T2 construct: isoTOP-ABPP experiments performed in cell lysates (in vitro); endogenous in cells; host or cells: soluble proteome of human cancer cell lines (MDA-MB-231, Ramos, Jurkat)
T2 sequence (Q13033 1-797): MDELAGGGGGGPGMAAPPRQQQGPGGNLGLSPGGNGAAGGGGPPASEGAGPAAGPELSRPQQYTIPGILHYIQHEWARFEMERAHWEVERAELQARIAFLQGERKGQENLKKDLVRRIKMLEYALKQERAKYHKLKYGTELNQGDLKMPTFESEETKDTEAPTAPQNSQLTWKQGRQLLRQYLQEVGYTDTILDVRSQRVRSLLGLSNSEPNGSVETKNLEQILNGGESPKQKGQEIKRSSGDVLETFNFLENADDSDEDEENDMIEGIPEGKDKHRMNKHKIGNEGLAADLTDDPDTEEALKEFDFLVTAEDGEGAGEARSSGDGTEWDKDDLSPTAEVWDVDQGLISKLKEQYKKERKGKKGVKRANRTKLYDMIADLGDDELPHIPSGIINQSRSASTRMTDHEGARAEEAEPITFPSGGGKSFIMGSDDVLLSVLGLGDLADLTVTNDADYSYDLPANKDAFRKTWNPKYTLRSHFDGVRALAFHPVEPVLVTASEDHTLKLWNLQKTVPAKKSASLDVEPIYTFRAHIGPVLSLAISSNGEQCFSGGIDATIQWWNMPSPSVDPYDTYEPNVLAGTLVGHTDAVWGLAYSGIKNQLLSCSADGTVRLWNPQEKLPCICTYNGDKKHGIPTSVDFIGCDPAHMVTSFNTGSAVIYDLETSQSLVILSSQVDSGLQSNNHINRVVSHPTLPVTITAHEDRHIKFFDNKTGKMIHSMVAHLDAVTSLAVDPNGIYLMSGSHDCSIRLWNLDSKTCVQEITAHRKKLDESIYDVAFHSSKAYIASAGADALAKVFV
In short: as §1

Structure (SMILES) | isoTOP-ABPP ratio, lysine P02545_K135 (LMNA Prelamin-A/C; 50 uM_231_sol_in vitro) | isoTOP-ABPP ratio, lysine Q13033_K755 (STRN3 Striatin-3; 50 uM_231_sol_in vitro) | isoTOP-ABPP ratio, lysine P02545_K135 (LMNA Prelamin-A/C; 100 uM_231_sol_in vitro) | isoTOP-ABPP ratio, lysine Q13033_K755 (STRN3 Striatin-3; 100 uM_231_sol_in vitro)
N#Cc1ccc(C(=O)Oc2ccc([N+](=O)[O-])cc2[N+](=O)[O-])cc1 [fragment 44, 2,4-Dinitrophenyl 4-cyanobenzoate] | 0.9 | 1.0 | – | –
O=C(CCc1ccc2c(c1)OCO2)Oc1ccc([N+](=O)[O-])cc1[N+](=O)[O-] [fragment 45, 2,4-Dinitrophenyl 3-(benzo[d][1,3]dioxol-5-yl)propanoate] | 0.9 | 1.3 | – | –
O=C(ON1C(=O)CCC1=O)c1cc(C(F)(F)F)cc(C(F)(F)F)c1 [fragment 46, 3,5-Bis(trifluoromethyl)benzoic acid NHS ester] | 0.7 | 11.4 | – | –
O=C(Oc1c(F)c(F)c(C(F)(F)F)c(F)c1F)c1cc(C(F)(F)F)cc(C(F)(F)F)c1 [fragment 47, 2,3,5,6-Tetrafluoro-4-(trifluoromethyl)phenyl 3,5-bis(trifluoromethyl)benzoate] | 1.2 | 0.9 | – | –
O=C(Oc1c(F)c(F)cc(F)c1F)c1cc(C(F)(F)F)cc(C(F)(F)F)c1 [fragment 48, 2,3,5,6-Tetrafluorophenyl 3,5-bis(trifluoromethyl)benzoate] | 1.0 | 1.2 | – | –
COC(=O)NC(=NC(=O)OCC1c2ccccc2-c2ccccc21)n1cccn1 [fragment 49, N-Methoxycarbonyl-N′-9-fluorenylmethoxycarbonyl-pyrazole-1-carboxamidine] | – | – | 1.1 | 1.8
CC(C)(C)OC(=O)N=C(NC(=O)OC(C)(C)C)n1cccn1 [fragment 50, reference compound] | – | – | 1.3 | 1.2
NC(=O)c1cc(C(F)(F)F)cc(C(F)(F)F)c1 [fragment 51, reference compound] | 1.0 | 0.9 | – | –
